Columns and labels:
Aβ fibrils = conditions: non-Cu binding blocking agent; cited from earlier work
[1] = pH-spectrophotometric titration, stability constants of Cu^2+ complexes; type: physicochemical; conditions: for Calculated pCu (−log[Cu]free): [Cu^2+]tot = [chelator]tot = 50 μM
Protocol: Similar spectrophotometric titrations were performed to determine the stability constants and solution speciation of Cu^2+ with L3-L6. Stability constants were determined by titrating solutions of the compounds and equimolar amounts of Cu(ClO4)2.6H2O (50 μM or 0.5 mM) with small aliquots of 0.1 M NaOH at room temperature. At least 30 UV-vis spectra were collected in the pH 3-11 range (FIG. 2). The acidity and stability constants were calculated using the HypSpec computer program (Protonic Software, UK, Gans, P.; Sabatini, A.; Vacca, A. Ann. Chim. 1999, 45). Speciation plots of the compounds and their metal complexes were calculated using the program HySS2009 (Protonic Software, UK) (Alderighi, L. Coord. Chem. Rev. 1999, 184, 311). […] The data obtained for the Cu complex of compound L7 could not be fit satisfactorily using a reasonable model, most likely due to a multinuclear complex formation, as observed by X-ray crystallography.

[2] = UV-vis pH titration, acidity constant determination; type: physicochemical; conditions: 50 μM, 0.1 M NaCl, room temperature, methanol-water (methanol ≤20% v:v); for [HL1]/[L1]^− (pKa4): assigned to the phenol group
Protocol: UV-vis pH titrations were employed to determine the acidity constants of compounds L3-L7 and the stability constants of their Cu^2+ complexes. For acidity constants, solutions of the bifunctional compound (50 μM, 0.1 M NaCl, pH 3) were titrated with small aliquots of 0.1 M NaOH at room temperature. At least 30 UV-vis spectra were collected in the pH 3-11 range (FIG. 1).

Aβ40 fibrils = biological target: T1, Aβ40 fibrils (Homo sapiens, UniProt P05067); experiment: Direct fluorescence assay with Aβ fibrils; type: binding; conditions: [Aβ]=5 μM, λex/λem=350/450 nm; read-out: Kd, Aβ fibrils, compound fluorescence
T1 construct: purchased Keck Biotechnology Resource Laboratory, Yale University
T1 sequence (P05067 672-711 limits assumed): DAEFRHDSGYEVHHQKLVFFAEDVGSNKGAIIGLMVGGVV
Protocol: (§1) Aβ monomeric films were prepared by dissolving commercial Aβ42 (or Aβ40 for Aβ fibril binding studies) peptide (Keck Biotechnology Resource Laboratory, Yale University) in hexafluoroisopropanol (HFIP) (1 mM) and incubating for 1 hour at room temperature (Klein, W. L. Neurochemistry International 2002, 41, 345). The solution was then aliquoted out and evaporated overnight. The aliquots were vacuum centrifuged and the resulting monomeric films stored at −80° C. Aβ fibrils were generated by dissolving monomeric Aβ films in dimethyl sulfoxide (DMSO), diluting into the appropriate buffer, and incubating for 24 hours at 37° C. with continuous agitation (final DMSO concentration was <2%). […]
(§2) All fluorescence measurements were performed using a SpectraMax M2e plate reader (Molecular Devices). For ThT fluorescence studies, samples were diluted to a final concentration of 2.5 μM Aβ in phosphate buffered saline (PBS) solution containing 10 μM ThT and the fluorescence measured at 485 nm (λex=435 nm). For Aβ fibril binding studies, a 5 μM Aβ fibril solution was titrated with small amounts of compound and their fluorescence intensity measured (λex/λem=350/450 nm). For ThT competition assays, a 2 μM Aβ fibril solution with 1 μM ThT was titrated with small amounts of compound and the ThT fluorescence measured (λex/λem=435/485 nm). […]

[3] = Biodistribution and brain uptake of ^64Cu-radiolabeled compounds; type: in vivo, wild type CD-1 female mice; conditions: ^64Cu complexes, tail vein injection, 2, 60 and 240 min
Protocol: Biodistribution studies were conducted in wild type CD-1 female mice (Charles River Laboratories) of age 5-7 weeks weighing 25.4±1.4 g. The injection dose was prepared by diluting to a 90% saline solution. The uptake of compounds was evaluated in mice (L3 and L6, n=7; L4, L5, and L7, n=3) that were injected via the tail vein with 0.22-0.37 MBq (6-10 μCi) of each compound per animal in 100 μL saline. After each time points (2, 60, and 240 min), mice were anesthetized with 1-2% isoflurane and sacrificed by cervical dislocation. Brain, blood, kidney, liver and other organs of interest were harvested and amount of radioactivity in each organ was counted on a gamma counter containing a NaI crystal. The data was corrected for radioactive decay and percent injected dose per gram (% ID/g) of tissue was calculated. All samples were calibrated against a known standard. Quantitative data were processed by Prism 6 (GraphPad Software, v 6.03, La Jolla, Calif.) and expressed as Mean±SEM. Statistical analysis performed using one-way analysis of variance and Student's t test. Differences at the 95% confidence level (p<0.05) were considered statistically significant.

ThT-bound Aβ40 fibrils = biological target: T2, ThT-bound Aβ40 fibrils (Homo sapiens, UniProt P05067); experiment: ThT fluorescence competition assay; type: binding; conditions: [Aβ]=2 μM, [ThT]=1 μM
T2 construct: purchased Keck Biotechnology Resource Laboratory, Yale University
T2 sequence (P05067 672-711 limits assumed): as above
Protocol: as §1, §2

Aβ deposits = conditions: cited from earlier work
[4] = Cu^2+ complex, equimolar Cu(ClO4)2, room temperature

[H2L1]^+/[HL1] (pKa3) [2]	[H3L1]^+2/[H2L1]^+ (pKa2) [2]	[H4L1]^3+/[H3L1]^2+ (pKa1) [2]	[HL1]/[L1]^− (pKa4) [2]	Stability constant, M^2+ + L^− = [ML]^+ [1, 4]	Stability constant, M^2+ + HL = [MHL]^+2 [1, 4]	Compound	Brain uptake and wash out [3]	also measured
8.27	6.35	3.78	9.34	31.96(60)	–	COc1cc(-c2nc3ccccc3s2)cc(CN2CCN(C)CCN(C)CC2)c1O [L3]	–	Stability constant, [ML(H2O)]^+1 = [ML(OH)] + H^+ [1, 4]: 10.14(60); Kd (Aβ40 fibrils): ~575 nM
9.34	7.84	5.14	10.14	27.093	2.881	COc1cc(-c2nc3ccccc3s2)cc(CN2Cc3cccc(n3)CNCc3cccc(n3)C2)c1O [L4]	higher initial brain uptake at 2 min, followed by rapid wash out	–
8.02	5.61	4.80	9.60	27.224	4.008	COc1cc(-c2nc3ccccc3s2)cc(CN2Cc3cccc(n3)CN(C)Cc3cccc(n3)C2)c1O [L5]	higher initial brain uptake at 2 min, followed by rapid wash out	–
8.71	6.93	4.57	9.98	30.098	3.012	COc1cc(-c2nc3ccccc3s2)cc(CN2Cc3cccc(n3)CN(CC(=O)O)Cc3cccc(n3)C2)c1O [L6]	higher initial brain uptake at 2 min, followed by rapid wash out	Ki (ThT-bound Aβ40 fibrils): 325 ± 40 nM
8.22	7.39	4.35	10.65	–	–	COc1cc(-c2nc3ccccc3s2)cc(CN2Cc3cccc(n3)CN(Cc3cc(-c4nc5ccccc5s4)cc(OC)c3O)Cc3cccc(n3)C2)c1O [L7]	higher initial brain uptake at 2 min, followed by rapid wash out	–

The remaining lines, values behind:

Compound	[H2L1]^+/[HL1] (pKa3) [2]	[H3L1]^+2/[H2L1]^+ (pKa2) [2]	[H4L1]^3+/[H3L1]^2+ (pKa1) [2]	[HL1]/[L1]^− (pKa4) [2]	Stability constant, M^2+ + L^− = [ML]^+ [1, 4]	Stability constant, M^2+ + HL = [MHL]^+2 [1, 4]	Brain uptake and wash out [3]	also measured
Oc1cccc2scnc12 [BTZ, 4-hydroxybenzothiazole]	–	–	–	–	–	–	–	Affinity for Aβ fibrils (Aβ fibrils): nanomolar affinity
O=C(O)CN(CCN(CC(=O)O)CC(=O)O)CCN(CC(=O)O)CC(=O)O [DTPA, diethylene triamine pentaacetic acid, reference compound]	–	–	–	–	–	–	–	Calculated pCu (−log[Cu]free) ([1]; pH 6.6): 9.3; Calculated pCu (−log[Cu]free) ([1]; pH 7.4): 10.1
COc1ccc(/C=C/c2ccc(O)cc2)cc1OC [L8]	–	–	–	–	–	–	–	Ki (ThT-bound Aβ40 fibrils): 66 ± 20 nM
[11CH3]Nc1ccc(-c2nc3ccc(O)cc3s2)cc1 [^11C-PiB]	–	–	–	–	–	–	–	Binding to soluble amyloid, NFTs, Lewy bodies (Aβ deposits; at nanomolar concentrations): does not bind; Binding to Aβ deposits (Aβ deposits; in vitro autoradiography): binds to aggregated, fibrillar Aβ deposits

From patent US9422286B2, “Metal-binding bifunctional compounds as diagnostic agents for Alzheimer's disease” (Washington University, priority 2014, dated 2016)
